Measured values published in PubChem BioAssay (NCI).
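In this assay, cells in 96-well plates receive the compound at five concentrations for 48 hours. Endpoints are linearly interpolated between the surrounding concentrations. TGI: total growth inhibition.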

Columns and labels:
Assay in all cases: NCI anticancer screen, dose series, 48 h
OVCAR-8 ovarian = test system: OVCAR-8 ovarian
TK-10 renal = test system: TK-10 renal
OVCAR-3 ovarian = test system: OVCAR-3 ovarian
UACC-257 melanoma = test system: UACC-257 melanoma
HCT-116 colon = test system: HCT-116 colon
T-47D breast = test system: T-47D breast
DU-145 prostate = test system: DU-145 prostate
SNB-75 CNS = test system: SNB-75 CNS
SR leukemia = test system: SR leukemia

CCOC(=O)Cc1cc(=O)[nH]c(-n2[nH]c(C)c(CCO)c2=O)n1
TGI (OVCAR-8 ovarian): > 100 µM
TGI (TK-10 renal): > 100 µM
TGI (OVCAR-3 ovarian): > 100 µM
TGI (UACC-257 melanoma): > 100 µM
TGI (HCT-116 colon): > 100 µM
TGI (T-47D breast): > 100 µM
TGI (DU-145 prostate): > 100 µM

O=C(NNc1nc(-c2ccccc2)cs1)Nc1ccccc1
TGI (OVCAR-8 ovarian): 46.8 µM
TGI (TK-10 renal): 48.6 µM
TGI (SNB-75 CNS): 69.3 µM
TGI (OVCAR-3 ovarian): 50.2 µM
TGI (UACC-257 melanoma): 59.3 µM
TGI (HCT-116 colon): 58.5 µM
TGI (T-47D breast): 66.8 µM
TGI (DU-145 prostate): 89.1 µM

CCOC(=O)C1CCCN1C(=O)c1ccccc1Cl (stereo not drawn)
TGI (OVCAR-8 ovarian): > 100 µM
TGI (TK-10 renal): > 100 µM
TGI (SNB-75 CNS): > 100 µM
TGI (OVCAR-3 ovarian): > 100 µM
TGI (UACC-257 melanoma): > 100 µM
TGI (HCT-116 colon): > 100 µM
TGI (T-47D breast): > 100 µM
TGI (DU-145 prostate): > 100 µM
TGI (SR leukemia): > 100 µM

CSc1c(C)n([O-])c2cc(Cl)c(Cl)cc2[n+]1=O
TGI (OVCAR-8 ovarian): 32.3 µM
TGI (TK-10 renal): 35.6 µM
TGI (SNB-75 CNS): > 69.4 µM
TGI (OVCAR-3 ovarian): 33.1 µM
TGI (UACC-257 melanoma): 34.8 µM
TGI (HCT-116 colon): 32 µM
TGI (T-47D breast): 50 µM
TGI (DU-145 prostate): 30.9 µM
TGI (SR leukemia): 5.69 µM

Cc1nccn1S(=O)(=O)c1ccc(Cl)cc1
TGI (OVCAR-8 ovarian): > 100 µM
TGI (TK-10 renal): > 100 µM
TGI (SNB-75 CNS): > 100 µM
TGI (OVCAR-3 ovarian): > 100 µM
TGI (UACC-257 melanoma): > 100 µM
TGI (HCT-116 colon): > 100 µM
TGI (T-47D breast): > 100 µM
TGI (DU-145 prostate): > 100 µM
TGI (SR leukemia): > 100 µM

COC(=O)/C=C\C(C#N)(C#N)N=Cc1ccc(Br)cc1
TGI (OVCAR-8 ovarian): 21.5 µM
TGI (TK-10 renal): 6.59 µM
TGI (SNB-75 CNS): 28.8 µM
TGI (OVCAR-3 ovarian): 24.9 µM
TGI (UACC-257 melanoma): 28 µM
TGI (HCT-116 colon): > 60.5 µM
TGI (T-47D breast): 14 µM
TGI (DU-145 prostate): 16.7 µM
TGI (SR leukemia): > 100 µM

O=C1c2cc3ncsc3cc2C(=O)c2c(O)ccc(O)c21
TGI (OVCAR-8 ovarian): > 100 µM
TGI (TK-10 renal): > 100 µM
TGI (SNB-75 CNS): > 100 µM
TGI (OVCAR-3 ovarian): > 100 µM
TGI (UACC-257 melanoma): > 100 µM
TGI (HCT-116 colon): > 100 µM
TGI (DU-145 prostate): > 100 µM
TGI (SR leukemia): > 100 µM

C=C1CC(O)C2C(=C)C(=O)OC2C2C(C)C(=O)CC12 (stereo not drawn)
TGI (OVCAR-8 ovarian): 50.9 µM
TGI (TK-10 renal): 18.7 µM
TGI (SNB-75 CNS): 30.3 µM
TGI (OVCAR-3 ovarian): 24 µM
TGI (UACC-257 melanoma): 26.5 µM
TGI (HCT-116 colon): > 100 µM
TGI (T-47D breast): 73 µM
TGI (DU-145 prostate): 46.8 µM
TGI (SR leukemia): 53.2 µM

Cc1ccc(S(=O)(=O)NC(=O)NC(CC(=O)O)C(=O)O)cc1 (stereo not drawn)
TGI (OVCAR-8 ovarian): > 100 µM
TGI (TK-10 renal): > 100 µM
TGI (SNB-75 CNS): > 100 µM
TGI (UACC-257 melanoma): > 100 µM
TGI (HCT-116 colon): > 100 µM
TGI (T-47D breast): > 100 µM
TGI (DU-145 prostate): > 100 µM
TGI (SR leukemia): > 100 µM

NC(=S)NS(=O)(=O)c1ccc(Cl)cc1
TGI (OVCAR-8 ovarian): > 100 µM
TGI (TK-10 renal): > 100 µM
TGI (SNB-75 CNS): > 100 µM
TGI (OVCAR-3 ovarian): > 100 µM
TGI (UACC-257 melanoma): > 100 µM
TGI (HCT-116 colon): > 100 µM
TGI (T-47D breast): > 100 µM
TGI (DU-145 prostate): > 100 µM

CC(=O)c1c(O)cc(O)c(-c2c(C)cc(O)c3c2C(=O)c2cccc(O)c2C3=O)c1O
TGI (OVCAR-8 ovarian): 49.5 µM
TGI (TK-10 renal): 35.6 µM
TGI (SNB-75 CNS): 38.1 µM
TGI (OVCAR-3 ovarian): 56.2 µM
TGI (UACC-257 melanoma): 40 µM
TGI (HCT-116 colon): 30 µM
TGI (T-47D breast): 22.7 µM
TGI (DU-145 prostate): 30.2 µM
TGI (SR leukemia): 53.8 µM

CCOP(=O)(Cc1nc(C#N)c(N)o1)OCC
TGI (TK-10 renal): > 100 µM
TGI (OVCAR-3 ovarian): > 100 µM
TGI (UACC-257 melanoma): > 100 µM
TGI (HCT-116 colon): > 100 µM
TGI (DU-145 prostate): > 100 µM
TGI (SR leukemia): > 100 µM

COc1cccc(N(CN2C(=O)CCC2OC)C(C)=O)c1 (stereo not drawn)
TGI (OVCAR-8 ovarian): > 100 µM
TGI (TK-10 renal): > 100 µM
TGI (SNB-75 CNS): > 100 µM
TGI (OVCAR-3 ovarian): > 100 µM
TGI (UACC-257 melanoma): > 100 µM
TGI (HCT-116 colon): > 100 µM
TGI (T-47D breast): > 100 µM
TGI (DU-145 prostate): > 100 µM
TGI (SR leukemia): > 100 µM
